Results: patent US5250563A, “Inhibitors of HIV protease” (Merck & Co., Inc., priority 1992, dated 1993)

biological target: T1, HIV protease (Human immunodeficiency virus type 1 group M subtype B, UniProt P04585); assay: Assay for Inhibition of Recombinant HIV Protease (tritiated peptide substrate cleavage); format: biochemical; design: the HIV protease expressed in Escherichia coli; made in house; host or cells: Escherichia coli; settings: pH 5.5, 60 minutes at 37° C., HIV protease expressed in Escherichia coli, [3H]-peptide substrate
Method: Assay for Inhibition of Recombinant HIV Protease
Inhibition studies were performed on the reaction of the HIV protease expressed in Escherichia coli with a tritiated peptide substrate, [^3 H]-acetyl-Val-Ser-Gln-Asn-(beta-napthyl-Ala)-Pro-Ile-Val-Gin-Gly-Arg-Arg-NH2 (MW 1800). The two arginine residues at the carboxyl terminus give this peptide an overall positive charge at acidic pH and enable it to bind to the H^+ form of DOWEX AG-50W-X8 resin and similar resins.
Aliquots of 25 μl containing 6.0-8.0 nM HIV protease in assay buffer (100 mM sodium acetate, pH 5.5 and 0.1% BSA) are placed in assay tubes. The reaction is initiated by addition of 25 μl aliquots of 4.2 μM tritiated peptide substrate in 100 mM sodium acetate, pH 5.5. After incubation for 60 minutes at 37° C., the reaction is stopped with 100 μl of 5% H3 PO4, then analysed by application of column chromatography.

Compound | IC50 [µM]
C=C1C(C)C2C(Cc3cccc(O)c3)NC(=O)C23C(OC(C)=O)C=CC(C)CC(CO)CC=CC3C1O (centres unmarked) [Compound 4] | 25
C=C1C(C)C2C(Cc3ccccc3)NC(=O)C23C(OC(C)=O)C=CC(C)CC(O)(CO)CC=CC3C1O (centres unmarked) [Compound 6] | > 50
C=C1C(C)C2C(Cc3cccc(O)c3)NC(=O)C23C(OC(C)=O)C=CC(C)CC(O)(CO)CC=CC3C1O (centres unmarked) [Compound 7] | > 50
C=C1C(C)C2C(Cc3ccccc3)NC(=O)C23C(OC(C)=O)C=CC(C)CC(CO)CC=CC3C1O (centres unmarked) [Compound 2] | 43
C=C1C(C)C2C(Cc3ccc(O)cc3)NC(=O)C23C(OC(C)=O)C=CC(C)CC(CO)CC=CC3C1O (centres unmarked) [Compound 3] | 40
C=C1C(C)C2C(Cc3ccccc3)NC(=O)C23C(OC(C)=O)C=CC(C)CC(C)CC=CC3C1O (centres unmarked) [Compound 1] | 10
C=C1C(C)C2C(Cc3ccc(O)c(O)c3)NC(=O)C23C(OC(C)=O)C=CC(C)CC(CO)CC=CC3C1O (centres unmarked) [Compound 5] | > 50

biological target: T1, HIV protease; assay: peptide cleavage assay (HIV protease assay); format: biochemical; settings: not given

Compound | IC50 [µM]
C=C1C(C)C2C(Cc3ccccc3)NC(=O)C23C(OC(C)=O)C=CC(C)CC(C)CC=CC3C1O (centres unmarked) [Compound 1] | ~6.28
